Measured values published in patent publication US9434687B2, “Detection of synthetic cannabinoids” (priority 2011, dated 2016).
Where two headings read alike, the source gives them in different places.

Tests used:
Type in all cases: binding, sheep
[1] = tested on: IgG fraction of antiserum raised to Immunogen I; settings: Antibody to Immunogen I; cross-reactants at 100 ng/ml; 1000 ng/ml; standard JWH-018
Description: (§1) An aqueous solution of each immunogen was formulated with Freund's Complete Adjuvant (FCA) to form an emulsion consisting of 2 mg/ml*immunogen in 50% (v/v) FCA. Three sheep were immunised with this emulsion (1° immunisation), 0.25 ml being intramuscularly injected at each of four sites in the flank of each animal. Subsequent immunizations (boosts) contained 1 mg/ml*immunogen. All boosts were emulsified in 50% (v/v) Freund's Incomplete Adjuvant (FIA) and were administered in the same manner as the 1° immunisation, at monthly intervals. Blood sampling took place 7 to 14 days after each boost. *The general procedure for immunogen administration is outlined above, however, it was necessary to deviate from this protocol in some cases, due to reduced immunogen concentrations (Immunogens II, IV, VII and VIII) and/or amount available (Immunogen VIII). Any deviations from the protocol described are outlined in Table 5 below and highlighted in bold.
(§2) The wells of an enhanced binding 96 well polystyrene microtiter plate were coated with IgG fraction of antiserum raised to Immunogen I or II, diluted in 10 mM Tris, pH8.5 (125 μl/well). The appropriate antibody coating dilution was determined using standard ELISA checkerboard techniques. The plate was incubated overnight at 4° C., washed 4 times over 10 minutes with Tris buffered saline containing Tween 20 (TBST) and tapped dry. Standard solutions (JWH-018 for Immunogens I and II) were applied at 0, 0.625, 1.25, 2.5, 5, 10, 20 and 40 ng/ml and 50 μl of each was added to the appropriate wells. 75 μl of conjugate (appropriate hapten-HRP) diluted in Tris buffer (pH 7.2) containing EDTA, D-mannitol, sucrose, thimerosal and BSA, was added to each of the wells. The appropriate dilution of conjugate was also determined using standard ELISA checkerboard techniques. The plate was incubated at 25° C. for 1 hour. Excess unbound conjugate was removed by washing 6 times over a 10 minute period with TBST. 125 μl of tetramethylbenzidine (TMB) substrate solution was added to each well of the plate that was then incubated for 20 minutes in the dark at room temperature. The reaction was terminated by addition of 125 μl 0.2M H2SO4 to each well. The absorbance was then measured at 450 nm using a microtiter plate reader. The data are inputted to a computer program called ‘KC Junior’. It is a 4 parameter fit curve and allow the calculation of concentrations between the standard runs. This program is used to calculate the IC50s by dividing the 0 ng/ml OD value by 2 and obtaining the concentration value from the curve for this OD.
In a similar manner to that described above, the wells of a 96-well microtiter plate were coated with the IgG fraction of the antiserum raised to Immunogens I or II. Standard solutions (JWH-018 for Immunogen I and II) were applied at 0, 0.625, 1.25, 2.5, 5, 10, 20 and 40 ng/ml and conjugate was employed as detection reagent.
(§3) The data set out in Tables 7-10 are generated using antibodies raised against the indicated Immunogens in a competitive binding assay with the indicated tracers, using the indicated standards
(§4) In order to determine the specificity of the competitive ELISAs, standard solutions of a range of structurally similar synthetic cannabinoids and their metabolites were prepared in TBST.
(§5) Using the calibration curves generated and employing a single level of cross reactants, these were used to determine the cross-reactivity of each immunoassay with these substances. These are the standards used for the IC50 and cross-reactivity data generation: […]

[2] = tested on: IgG fraction of antiserum raised to Immunogen VII
Description: as §1, §2
(§6) In a similar manner to that described above, the wells of a 96-well microtiter plate were coated with the IgG fraction of the antiserum raised to Immunogens IV, VII or VIII. Standard solutions (JWH-018 for Immunogens IV and VIII, JWH-015 for Immunogen VII) were prepared in TBST at 0, 1.25, 2.5, 5, 10, 20, 40 and 80 ng/ml and conjugate was employed as detection reagent.
as §3, §4, §5

[3] = tested on: IgG fraction of antiserum raised to Immunogen IV; settings: Antibody to Immunogen IV; cross-reactants at 100 ng/ml; 1000 ng/ml; standard JWH-018
Description: as §1, §2, §6, §3, §4, §5

[4] = tested on: IgG fraction of antiserum raised to Immunogen VIII; settings: Antibody to Immunogen VIII; cross-reactants at 100 ng/ml; 1000 ng/ml; standard JWH-018
Description: as §1, §2, §6, §3, §4, §5

[5] = tested on: IgG fraction of antiserum raised to Immunogen II; test: Competitive ELISA, antibody RS1833B12 to Immunogen II, tracer ESC4555 (Example 36); settings: Antibody to Immunogen II; cross-reactants at 100 ng/ml; 1000 ng/ml; standard JWH-018
Description: as §1
as §2, with “The” for “The wells of an enhanced binding 96 well polystyrene microtiter plate were coated with IgG fraction of antiserum raised to Immunogen I or II, diluted in 10 mM Tris, pH8.5 (125 μl/well). The”, “Standard solutions (JWH-018 for Immunogens I and II) were applied at 0, 0.625, 1.25, 2.5, 5, 10, 20 and 40 ng/ml and 50 μl of each was added to the appropriate wells.” left out, “runs.” for “runs. This program is used to calculate the IC50s by dividing the 0 ng/ml OD value by 2 and obtaining the concentration value from the curve for this OD.”
In a similar manner to that described above, the wells of a 96-well microtiter plate were coated with the IgG fraction of the antiserum raised to Immunogens I or II.
as §3, §5

[6] = Antibody to Immunogen VII, cross-reactants at 100 ng/ml, 1000 ng/ml, standard JWH-015

SMILES: CCCC(C)n1cc(C(=O)c2cccc3ccccc23)c2ccccc21 (single isomer, unassigned) [JWH-018 N-(1-methylbutyl) isomer]
- % B/B0 [1]: 12.42%
- % B/B0 [2, 6]: 67.71%
- % B/B0 [3]: 73.49%
- % B/B0 [4]: 63.22%
- % B/B0 [5]: 51.92%

SMILES: CCC(C)Cn1cc(C(=O)c2cccc3ccccc23)c2ccccc21 (single isomer, unassigned) [JWH-018 N-(2-methylbutyl) isomer]
- % B/B0 [1]: 3.61%
- % B/B0 [2, 6]: 58.84%
- % B/B0 [3]: 29.88%
- % B/B0 [4]: 85.16%
- % B/B0 [5]: 28.60%

SMILES: CCCCn1cc(C(=O)c2cccc3ccccc23)c2c(O)cccc21 [4-OH JWH-073, JWH-073 4-hydroxyindole metabolite]
- % B/B0 [1]: 39.50%
- % B/B0 [2, 6]: 82.82%
- % B/B0 [3]: 28.69%
- % B/B0 [4]: 26.23%
- % B/B0 [5]: 40.14%

SMILES: CCCCn1cc(C(=O)c2cccc3ccccc23)c2cc(O)ccc21 [5-OH JWH-073, JWH-073 5-hydroxyindole metabolite]
- % B/B0 [1]: 7.34%
- % B/B0 [2, 6]: 75.11%
- % B/B0 [3]: 84.06%
- % B/B0 [4]: 90.70%
- % B/B0 [5]: 20.73%

SMILES: CCCCn1cc(C(=O)c2cccc3ccccc23)c2ccc(O)cc21 [6-OH JWH-073, JWH-073 6-hydroxyindole metabolite]
- % B/B0 [1]: 5.93%
- % B/B0 [2, 6]: 61.83%
- % B/B0 [3]: 74.89%
- % B/B0 [4]: 93.52%
- % B/B0 [5]: 28.03%

SMILES: CCCCCn1cc(C(=O)c2cccc3ccccc23)c2cccc(O)c21 [7-OH JWH-018, JWH-018 7-hydroxyindole metabolite]
- % B/B0 [1]: 6.72%
- % B/B0 [2, 6]: 68.53%
- % B/B0 [3]: 93.31%
- % B/B0 [4]: 94.46%
- % B/B0 [5]: 34.79%

SMILES: CCCCn1cc(C(=O)c2cccc3ccccc23)c2cccc(O)c21 [7-OH JWH-073, JWH-073 7-hydroxyindole metabolite]
- % B/B0 [1]: 5.59%
- % B/B0 [2, 6]: 61.78%
- % B/B0 [3]: 96.95%
- % B/B0 [4]: 94.04%
- % B/B0 [5]: 46.05%

SMILES: CS(=O)(=O)O.Cc1c(C(=O)c2cccc3ccccc23)c2cccc3c2n1[C@H](CN1CCOCC1)CO3 [(+)WIN 55212-2]
- % B/B0 [1]: 17.00%
- % B/B0 [2, 6]: 24.08%
- % B/B0 [3]: 92.76%
- % B/B0 [4]: 107.12%
- % B/B0 [5]: 83.87%

SMILES: O=C(c1cccc(I)c1)c1cn(CCCCCF)c2ccccc12 [AM-694 3-iodo isomer]
- % B/B0 [1]: 31.37%
- % B/B0 [2, 6]: 89.49%
- % B/B0 [3]: 37.20%
- % B/B0 [4]: 12.71%
- % B/B0 [5]: 48.58%

SMILES: O=C(c1ccccc1I)c1cn(CCCCCF)c2ccccc12 [AM-694]
- % B/B0 [1]: 12.17%
- % B/B0 [2, 6]: 75.66%
- % B/B0 [3]: 11.30%
- % B/B0 [4]: 11.92%
- % B/B0 [5]: 36.18%

SMILES: CN1CCCCC1Cn1cc(C(=O)c2cccc3ccccc23)c2ccccc21 (centres unmarked) [AM-1220]
- % B/B0 [1]: 4.45%
- % B/B0 [2, 6]: 49.71%
- % B/B0 [3]: 86.93%
- % B/B0 [4]: 106.65%
- % B/B0 [5]: 77.46%

SMILES: O=C(c1cccc2ccccc12)c1cn(CCCC(O)CF)c2ccccc12 (centres unmarked) [AM-2201 N-(4-hydroxypentyl) metabolite]
- % B/B0 [1]: 3.80%
- % B/B0 [2, 6]: 52.75%
- % B/B0 [3]: 43.62%
- % B/B0 [4]: 36.41%
- % B/B0 [5]: 46.55%

SMILES: CN1CCCCC1Cn1cc(C(=O)c2ccccc2I)c2ccccc21 (centres unmarked) [AM-2233]
- % B/B0 [1]: 16.97%
- % B/B0 [2, 6]: 72.46%
- % B/B0 [3]: 92.10%
- % B/B0 [4]: 91.25%
- % B/B0 [5]: 86.43%

SMILES: CC(C)CCn1cc(C(=O)c2cccc3ccccc23)c2ccccc21 [JWH 018 N-(3-methylbutyl) isomer]
- % B/B0 [1]: 3.16%
- % B/B0 [2, 6]: 48.81%
- % B/B0 [3]: 12.75%
- % B/B0 [4]: 53.29%
- % B/B0 [5]: 30.38%

SMILES: CCCCCCn1cc(C(=O)c2cccc3ccccc23)c2cc(O)ccc21 [JWH 019 5-hydroxyindole metabolite]
- % B/B0 [1]: 19.81%
- % B/B0 [2, 6]: 87.58%
- % B/B0 [3]: 93.84%
- % B/B0 [4]: 101.57%
- % B/B0 [5]: 17.34%

SMILES: CCCCn1cc(C(=O)c2c(C)ccc3ccccc23)c2ccccc21 [JWH 073 2-methylnaphthyl analog]
- % B/B0 [1]: 21.84%
- % B/B0 [2, 6]: 76.74%
- % B/B0 [3]: 34.47%
- % B/B0 [4]: 78.79%
- % B/B0 [5]: 43.34%

SMILES: CCCCCn1cc(C(=O)c2c(C)ccc3ccccc23)c2ccccc21 [JWH 122 2-methylnaphthyl isomer]
- % B/B0 [1]: 33.35%
- % B/B0 [2, 6]: 85.37%
- % B/B0 [3]: 26.13%
- % B/B0 [4]: 61.74%
- % B/B0 [5]: 27.14%

SMILES: CCCCCn1cc(C(=O)c2cccc3cc(C)ccc23)c2ccccc21 [JWH 122 6-methylnaphthyl isomer]
- % B/B0 [1]: 12.55%
- % B/B0 [2, 6]: 86.66%
- % B/B0 [3]: 8.12%
- % B/B0 [4]: 20.46%
- % B/B0 [5]: 39.17%

SMILES: CCCCCn1cc(C(=O)c2cccc3ccc(C)cc23)c2ccccc21 [JWH 122 7-methylnaphthyl isomer]
- % B/B0 [1]: 36.46%
- % B/B0 [2, 6]: 92.44%
- % B/B0 [3]: 13.48%
- % B/B0 [4]: 38.48%
- % B/B0 [5]: 38.28%

SMILES: CCCCCn1c(C)c(C(=O)c2cccc3ccccc23)c2ccccc21 [JWH-007]
- % B/B0 [1]: 32.96%
- % B/B0 [2, 6]: 27.77%
- % B/B0 [3]: 60.63%
- % B/B0 [4]: 61.76%
- % B/B0 [5]: 66.06%

SMILES: CCCn1c(C)c(C(=O)c2cccc3ccccc23)c2ccccc21 [JWH-015]
- % B/B0 [1]: 14.67%
- % B/B0 [2, 6]: 17.84%
- % B/B0 ([2]; JWH-015 1.25 ng/ml): 75%
- % B/B0 ([2]; JWH-015 2.5 ng/ml): 62%
- % B/B0 ([2]; JWH-015 5 ng/ml): 54%
- % B/B0 ([2]; JWH-015 10 ng/ml): 43%
- % B/B0 ([2]; JWH-015 20 ng/ml): 34%
- % B/B0 ([2]; JWH-015 40 ng/ml): 26%
- % B/B0 ([2]; JWH-015 80 ng/ml): 20%
- IC50 ([2]; Table 9 standard curve, standard concentration which produces 50% B/B0): 5.910 ng/mL
- % B/B0 [3]: 93.20%
- % B/B0 [4]: 92.27%
- % B/B0 [5]: 65.67%
